The values that follow come from patent US6207393A, “Inhibition of intracellular signal transduction by 14-3-3-binding peptides” (Washington University, priority 1999, dated 2001).

Where a SMILES comes first, the peptide text is derived from it. [ ]: non-standard residue; d: D form. pS = N[C@@H](COP(=O)(O)O)C(=O)O

Test [1] has as its target T1, 14-3-3 beta (Homo sapiens, UniProt P31946).
T1 construct: made in house; host or cells: E. coli DH5α (vector pGEX-KT)
T1 sequence (P31946 1-246): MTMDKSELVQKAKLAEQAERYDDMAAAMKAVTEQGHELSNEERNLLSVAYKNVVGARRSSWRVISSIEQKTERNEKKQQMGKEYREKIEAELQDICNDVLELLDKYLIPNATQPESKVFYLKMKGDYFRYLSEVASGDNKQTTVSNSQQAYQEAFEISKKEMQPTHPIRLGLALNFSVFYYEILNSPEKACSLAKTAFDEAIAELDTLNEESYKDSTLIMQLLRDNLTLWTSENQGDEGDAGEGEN
In words: SPR competitive inhibition of 14-3-3 beta binding to phosphorylated Raf-259 peptide. To be noted: isoform beta. The protocol:
(§1) The ability of each peptide to inhibit binding of 14-3-3 zeta to the phosphorylated peptide was then tested in a range of concentrations between 1 and 50 μM. 14-3-3 zeta was prepared according to the methods in Example 1 and binding affinities and specificities were determined using the peptides in Table 2. The 14-3-3 zeta fusion proteins (0.5-1.0 μM) were pre-incubated with a given peptide at concentrations between 1 μM and 50 μM. 14-3-3 zeta was then infused across a sensor chip surface which had been previously coupled with the phosphorylated Raf-259 peptide (SEQ ID NO: 4). IC50 values were determined by plotting the concentration of competitor peptide required to achieve a 50% reduction in equilibrium binding.
(§2) There are seven known isoforms of 14-3-3 which form homo- and heterodimers in vivo. If different isoforms of 14-3-3 could bind to proteins with distinct specificities, heterodimeric forms of 14-3-3 might function as modular linker proteins, bringing together different proteins into a single complex. We were, therefore, interested in determining whether different 14-3-3 isoforms recognize phosphoserine in a sequence specific fashion. This hypothesis was tested by expressing and purifying three other 14-3-3 isoforms, eta, beta and tau, and measuring their affinity towards the panel of phosphorylated peptides generated above. Using the Surface Plasmon Resonance method, the "on" and "off" rates for 14-3-3 binding to the phosphorylated Raf-259 peptide were calculated (Table 6).
(§3) Competitive inhibition with the mutated phosphorylated Raf-1 peptides was used to determine whether their specificities were similar (Table 7). In each case, the calculated IC50 s were very similar to those calculated for 14-3-3 zeta.

Test [2] concerns the target T2, 14-3-3 tau (Homo sapiens, UniProt P27348).
T2 construct: made in house; host or cells: E. coli DH5α (vector pGEX-KT)
T2 sequence (P27348 1-245): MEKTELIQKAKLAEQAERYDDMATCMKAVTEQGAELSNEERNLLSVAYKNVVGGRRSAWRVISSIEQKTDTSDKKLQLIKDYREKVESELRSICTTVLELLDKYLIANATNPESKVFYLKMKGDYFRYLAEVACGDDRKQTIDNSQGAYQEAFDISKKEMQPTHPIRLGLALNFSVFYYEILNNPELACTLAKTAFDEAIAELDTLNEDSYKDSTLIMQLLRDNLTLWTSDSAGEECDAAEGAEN
In words: SPR competitive inhibition of 14-3-3 tau binding to phosphorylated Raf-259 peptide. Conditions: isoform tau. The protocol:
as §1, §2, §3

Test [3] deals with T2, 14-3-3 tau. The test can be described thus: Surface plasmon resonance kinetics, 14-3-3 tau binding to phosphorylated Raf-259 peptide. Conditions: isoform tau. The protocol:
(§4) Because the surface plasmon resonance detects binding in real time, this method can be used to directly determine the rates of association (kon) and dissociation (koff). For these kinetic measurements, GST/14-3-3 fusion proteins were injected over a range of concentrations between 200 nM and 5 μM. The "on" rate, kon, was determined by calculating dR/dt for the initial linear portion of association using the Biaevaluation software (Pharmacia). Because ligand rebinding to the sensor chip can affect the "off" rate (koff, Panayotou et al. Mol Cell Biol 13:3567-76, 1993 which is incorporated by reference), we measured the "off" rate in the presence of 50 μM free ligand by using the coinject function of the Biacore. The "off" rate measured in the absence of 50 μM free ligand was approximately 10-fold lower.
as §2
In general terms: SPR reads the build-up and loss of mass on a sensor chip optically.

Test [4] has as its target T1, 14-3-3 beta. The test can be described thus: Surface plasmon resonance kinetics, 14-3-3 beta binding to phosphorylated Raf-259 peptide. To be noted: isoform beta. The protocol: as §4, §2

Usually IC50 stands for the concentration needed to halve the response being measured. Higher therefore signals weaker potency in that assay. Broadly, the Kd is the concentration at which binding is half-saturated. Lower therefore signals a tighter complex. Usually koff stands for the first-order rate constant of dissociation. Low values mean slow dissociation, high ones fast dissociation. Usually kon stands for the rate constant with which the complex forms. Low readings indicate slower complex formation, high ones faster complex formation. Take `CC(C)C[C@H](N)C(=O)N[C@@H](CO)C(=O)N[C@@H](CCC(N)=O)C(=O)N[C@@H](CCCNC(=N)N)C(=O)N[C@@H](CCC(N)=O)C(=O)N[C@@H](CCCNC(=N)N)C(=O)N[C@@H](CO)C(=O)N[C@H](C(=O)N[C@@H](COP(=O)(O)O)C(=O)N[C@H](C(=O)N1CCC[C@H]1C(=O)N[C@@H](CC(N)=O)C(=O)N[C@H](C(=O)N[C@@H](Cc1c[nH]cn1)C(=O)N[C@@H](C)C(=O)O)C(C)C)[C@@H](C)O)[C@@H](C)O` [pS-Raf-259] (H-LSQRQRST[pS]TPNVHA-OH): the 50% inhibitory concentration (IC50) at 14-3-3 beta [1] came to 6 µM; on 14-3-3 tau [2], 5 µM. Also, the Kd at 14-3-3 tau [3] is 0.144 µM; at 14-3-3 beta [4] it was 0.145 µM. The off-rate constant (koff) was determined as 0.0036 s⁻¹ at 14-3-3 tau [3] and 0.0032 s⁻¹ on 14-3-3 beta [4]. Moreover, the association rate constant (kon) at 14-3-3 tau [3] stood at 25000 M⁻¹ s⁻¹; at 14-3-3 beta [4] it was 22000 M⁻¹ s⁻¹.
